{"source": "patent US20230277569A1", "about": "“Compositions and Methods for Treating, Ameliorating and/or Preventing Cancer and Kits for the Same” (priority 2022, published 2023)", "key": {"[1]": {"assay": "Stability and particle size distribution of Gamitrinib Injectable Suspension (GIS)", "assay_type": "physicochemical", "method": "A sequential three-step process was utilized to prepare Good Laboratory Practice (GLP) working solutions of Gamitrinib (5 mg/mL) for preclinical studies. The formulation workflow is as follows: Step 1—Solubilization of Gamitrinib powder in DMSO (2.5%); […] Step 3—Dilution in 5% dextrose (87.5%). […] For Good Manufacturing Practice (GMP) studies, a Gamitrinib Injectable Suspension (GIS) was prepared by microfluidization. Gamitrinib stock solutions prepared as above were passed through a microfluidizer (Dyhydromatics, Acton, Mass.) with rate of flow set at low, medium, and high. At the end of GIS processing, microfluidization was continued at reduced pressure (2000 psi) for 1-2 min. […] Gamitrinib is formulated using a three-step dilution process described in the Materials and Methods section. A sterile, Gamitrinib Injectable Suspension (GIS) is prepared for clinical use using microfluidization with the schematic flowchart shown in FIG. 5B."}, "[2]": {"assay": "Gamitrinib pharmacokinetics (PK) in rat plasma, single IV dose", "assay_type": "in vivo, Sprague-Dawley rats", "conditions": "for 17-AG plasma concentration after IV Gamitrinib: Gamitrinib 5 mg/kg IV", "method": "Sprague-Dawley rats (n=3) were administered a single intravenous (IV) dose of 1 mL Gamitrinib (5 mg/kg) formulated as described above without added microfluidization. Blood samples were collected via lateral tail vein using K2EDTA as an anticoagulant at 0.083, 0.25, 0.5, 1, 2, 4 and 24 h post-dose, chilled on ice and centrifuged at 5000 rpm for 10 min. Aliquots (0.2 mL) of each plasma sample were stored frozen at −20° C. For analysis, 50 μL aliquots of study samples were mixed with 50 μL of ACN/H2O (50:50), extracted by protein precipitation using ACN containing the internal standard Gamitrinib-d15 (100 ng/mL), and aliquots of supernatant were mixed with deionized water for Gamitrinib determination. Batch samples under analysis included a calibration curve, a matrix blank (blank rat plasma), a reagent blank, a control zero (blank rat plasma spiked with internal standard), and duplicate QC samples at 3 concentration levels (low, medium, and high) in addition to the study samples. Within each batch, the study samples were bracketed by calibration standards or QC samples. The lowest calibration standard served to evaluate system suitability at the beginning of each batch. […] Overall, the concentration of Gamitrinib was measured in 21 rat plasma samples in 1 analytical batch using LC-MS/MS data acquisition on a Shimadzu Nexera LC system coupled with an AB Sciex Triple Quad 5500 mass spectrometer. Chromatograms were integrated using Analyst 1.6.2 software. A weighted (1/x^2, x=concentration) linear regression was used to generate the calibration curve for Gamitrinib. […] The mean, standard deviation, precision, accuracy, and assay variability were calculated using Microsoft Excel."}, "[3]": {"conditions": "5 mg/kg IV, individual animals Rat 1-3"}}, "note": "“And” between values parts separate entries of the source, which are not always exact repeats. Identical values can stand only once. Like-named read-outs stand apart in the source and are kept apart here.", "data": [{"smiles": "CO[C@H]1/C=C\\C=C(/C)C(=O)NC2=CC(=O)C(NCCCCCC[P+](c3ccccc3)(c3ccccc3)c3ccccc3)=C(C[C@@H](C)C[C@H](OC)[C@H](O)[C@@H](C)/C=C(\\C)[C@@H]1OC(N)=O)C2=O", "note": "[Gamitrinib, 17-Demethoxy-17-((6-(triphenylphosphonio)hexyl)amino)geldanamycin]", "values": [{"measurement": "stable (time of storage)", "setting": "[1]; injectable suspension at −20° C.", "result": "≥ 24", "unit": "weeks"}, {"measurement": "particle size", "setting": "[1]; injectable suspension produced by microfluidization", "result": "< 200", "unit": "nm"}, {"measurement": "t1/2", "setting": "[2]; 5 mg/kg IV, Sprague-Dawley rats, individual animals Rat 1-3", "result": "11.107 h and 14.022 h"}, {"measurement": "t1/2 (terminal phase half-life)", "setting": "[2]; 5 mg/kg IV, Sprague-Dawley rats, mean, n=3", "result": "12.25 ± 1.55", "unit": "h"}, {"measurement": "Gamitrinib plasma concentration", "setting": "[2]; 5 mg/kg IV, 5 min, animals 1-3", "result": "674.432 ng/mL and 622.199 ng/mL"}, {"measurement": "Gamitrinib plasma concentration", "setting": "[2]; 5 mg/kg IV, 15 min, animals 1-3", "result": "128.663 ng/mL and 180.951 ng/mL"}, {"measurement": "Gamitrinib plasma concentration", "setting": "[2]; 5 mg/kg IV, 30 min, animals 1-3", "result": "67.204 ng/mL and 106.381 ng/mL"}, {"measurement": "Gamitrinib plasma concentration", "setting": "[2]; 5 mg/kg IV, 60 min, animals 1-3", "result": "65.903 ng/mL and 55.991 ng/mL"}, {"measurement": "Gamitrinib plasma concentration", "setting": "[2]; 5 mg/kg IV, 120 min, animals 1-3", "result": "43.125 ng/mL and 29.914 ng/mL"}, {"measurement": "Gamitrinib plasma concentration", "setting": "[2]; 5 mg/kg IV, 240 min, animals 1-3", "result": "34.776 ng/mL and 28.905 ng/mL"}, {"measurement": "Gamitrinib plasma concentration", "setting": "[2]; 5 mg/kg IV, 1440 min, animals 1-3", "result": "10.511 ng/mL and 10.365 ng/mL"}, {"measurement": "AUCINF", "setting": "[2]; [3]", "result": "957.472 ng·h/mL and 918.784 ng·h/mL"}, {"measurement": "AUClast", "setting": "[2]; [3]", "result": "789.045 ng·h/mL and 709.112 ng·h/mL"}, {"measurement": "CL", "setting": "[2]; [3]", "result": "87.035 mL/min/kg and 90.700 mL/min/kg"}, {"measurement": "Cmax", "setting": "[2]; [3]", "result": "829.668 ng/mL and 1544.041 ng/mL"}, {"measurement": "MRT", "setting": "[2]; [3]", "result": "5.411 h and 5.524 h"}, {"measurement": "Vss", "setting": "[2]; [3]", "result": "60.052 L/kg and 78.131 L/kg"}, {"measurement": "Vz", "setting": "[2]; [3]", "result": "83.678 L/kg and 110.085 L/kg"}, {"measurement": "AUClast (AUC0-t)", "setting": "[2]; 5 mg/kg IV, mean, n=3", "result": 783.199, "unit": "ng·h/mL"}, {"measurement": "CL (clearance)", "setting": "[2]; 5 mg/kg IV, mean, n=3", "result": "85.656 ± 5.856 mL/min/kg and 85.65 ± 5.85 mL/min/kg"}, {"measurement": "17-AG plasma concentration after IV Gamitrinib", "setting": "[2]; 30 min, animals 1-3", "result": "BLOQ"}, {"measurement": "17-AG plasma concentration after IV Gamitrinib", "setting": "[2]; 60 min, animals 1-3", "result": "BLOQ"}, {"measurement": "17-AG plasma concentration after IV Gamitrinib", "setting": "[2]; 120 min, animals 1-3", "result": "BLOQ"}, {"measurement": "17-AG plasma concentration after IV Gamitrinib", "setting": "[2]; 240 min, animals 1-3", "result": "BLOQ"}, {"measurement": "17-AG plasma concentration after IV Gamitrinib", "setting": "[2]; 1440 min, animals 1-3", "result": "BLOQ"}, {"measurement": "concentration at 5 min", "setting": "[2]; Sprague-Dawley, rat, plasma, intravenous, 5 mg/kg, 5 mg/kg IV, 5 min, animals 1-3", "result": 526, "unit": "ng/mL"}, {"measurement": "concentration at 15 min", "setting": "[2]; Sprague-Dawley, rat, plasma, intravenous, 5 mg/kg, 5 mg/kg IV, 15 min, animals 1-3", "result": 212, "unit": "ng/mL"}, {"measurement": "concentration at 30 min", "setting": "[2]; Sprague-Dawley, rat, plasma, intravenous, 5 mg/kg, 5 mg/kg IV, 30 min, animals 1-3", "result": 114, "unit": "ng/mL"}, {"measurement": "concentration at 60 min", "setting": "[2]; Sprague-Dawley, rat, plasma, intravenous, 5 mg/kg, 5 mg/kg IV, 60 min, animals 1-3", "result": 71.4, "unit": "ng/mL"}, {"measurement": "concentration at 120 min", "setting": "[2]; Sprague-Dawley, rat, plasma, intravenous, 5 mg/kg, 5 mg/kg IV, 120 min, animals 1-3", "result": 46.7, "unit": "ng/mL"}, {"measurement": "concentration at 240 min", "setting": "[2]; Sprague-Dawley, rat, plasma, intravenous, 5 mg/kg, 5 mg/kg IV, 240 min, animals 1-3", "result": 36.8, "unit": "ng/mL"}, {"measurement": "concentration at 1440 min", "setting": "[2]; Sprague-Dawley, rat, plasma, intravenous, 5 mg/kg, 5 mg/kg IV, 1440 min, animals 1-3", "result": 11.9, "unit": "ng/mL"}, {"measurement": "half-life", "setting": "[2]; Sprague-Dawley, rat, plasma, iv, 5 mg/kg, 5 mg/kg IV, Sprague-Dawley rats, individual animals Rat 1-3, read-out: t1/2 (converted)", "result": 11.6, "unit": "h"}, {"measurement": "half-life", "setting": "[2]; Sprague-Dawley, rat, plasma, iv, 5 mg/kg, 5 mg/kg IV, Sprague-Dawley rats, mean, n=3, read-out: t1/2 (terminal phase half-life) (converted)", "result": "12.2 ± 1.55", "unit": "h"}, {"measurement": "AUC(0-inf)", "setting": "[2]; Sprague-Dawley, rat, plasma, iv, 5 mg/kg, 5 mg/kg IV, individual animals Rat 1-3", "result": 1050, "unit": "ng·h/mL"}, {"measurement": "AUC(0-t)", "setting": "[2]; Sprague-Dawley, rat, plasma, iv, 5 mg/kg, 5 mg/kg IV, individual animals Rat 1-3, read-out: AUClast", "result": 851, "unit": "ng·h/mL"}, {"measurement": "clearance", "setting": "[2]; Sprague-Dawley, rat, plasma, iv, 5 mg/kg, 5 mg/kg IV, individual animals Rat 1-3, read-out: CL", "result": 79.2, "unit": "mL/min/kg"}, {"measurement": "Cmax", "setting": "[2]; Sprague-Dawley, rat, plasma, iv, 5 mg/kg, 5 mg/kg IV, individual animals Rat 1-3, read-out: Cmax", "result": 1150, "unit": "ng/mL"}, {"measurement": "MRT", "setting": "[2]; Sprague-Dawley, rat, plasma, iv, 5 mg/kg, 5 mg/kg IV, individual animals Rat 1-3, read-out: MRT", "result": 5.54, "unit": "h"}, {"measurement": "Vd", "setting": "[2]; Sprague-Dawley, rat, plasma, iv, 5 mg/kg, 5 mg/kg IV, individual animals Rat 1-3, read-out: Vss", "result": 58.2, "unit": "L/kg"}, {"measurement": "Vd", "setting": "[2]; Sprague-Dawley, rat, plasma, iv, 5 mg/kg, 5 mg/kg IV, individual animals Rat 1-3, read-out: Vz", "result": 79.7, "unit": "L/kg"}, {"measurement": "AUC(0-inf)", "setting": "[2]; Sprague-Dawley, rat, plasma, iv, 5 mg/kg, 5 mg/kg IV, mean, n=3", "result": 976, "unit": "ng·h/mL"}, {"measurement": "AUC(0-t)", "setting": "[2]; Sprague-Dawley, rat, plasma, iv, 5 mg/kg, 5 mg/kg IV, mean, n=3, read-out: AUClast (AUC0-t)", "result": "783 ± 71.3", "unit": "ng·h/mL"}, {"measurement": "clearance", "setting": "[2]; Sprague-Dawley, rat, plasma, iv, 5 mg/kg, 5 mg/kg IV, mean, n=3, read-out: CL (clearance)", "result": "85.6 ± 5.8", "unit": "mL/min/kg"}, {"measurement": "Cmax", "setting": "[2]; Sprague-Dawley, rat, plasma, iv, 5 mg/kg, 5 mg/kg IV, mean, n=3, read-out: Cmax", "result": 1180, "unit": "ng/mL"}, {"measurement": "MRT", "setting": "[2]; Sprague-Dawley, rat, plasma, iv, 5 mg/kg, 5 mg/kg IV, mean, n=3, read-out: MRT", "result": 5.49, "unit": "h"}, {"measurement": "Vd", "setting": "[2]; Sprague-Dawley, rat, plasma, iv, 5 mg/kg, 5 mg/kg IV, mean, n=3, read-out: Vss", "result": 65.5, "unit": "L/kg"}, {"measurement": "Vd", "setting": "[2]; Sprague-Dawley, rat, plasma, iv, 5 mg/kg, 5 mg/kg IV, mean, n=3, read-out: Vz", "result": 91.2, "unit": "L/kg"}, {"measurement": "generation of 17-AG by Gamitrinib metabolism in rats", "setting": "[2]; in words", "result": "did not generate detectable levels"}]}]}
